Experimental data from the NIST ThermoML archive (doi:10.1016/j.jct.2018.08.035).

Assay: xn = mol fraction of the nth substance listed
Conditions: 100 kPa, Liquid, Vibrating tube method

CCC(O)CC [3-pentanol] + C[N+](=O)[O-]
Conditions | mass density [kg/m3]
290.86 K, x1 = 0.414 | 977.244
290.86 K, x1 = 0.615 | 890.972
290.95 K, x1 = 0.246 | 1006.81
290.95 K, x1 = 0.266 | 998.292
290.95 K, x1 = 0.275 | 994.793
290.95 K, x1 = 0.3 | 988.13
290.95 K, x1 = 0.325 | 987.695
290.95 K, x1 = 0.338 | 986.437
290.95 K, x1 = 0.363 | 982.374
290.95 K, x1 = 0.382 | 980.189
290.95 K, x1 = 0.407 | 976.76
290.95 K, x1 = 0.414 | 976.042
290.95 K, x1 = 0.486 | 956.644
290.95 K, x1 = 0.488 | 952.742
290.95 K, x1 = 0.546 | 927.124
290.95 K, x1 = 0.573 | 908.776
290.95 K, x1 = 0.587 | 897.749
290.95 K, x1 = 0.615 | 890.865
291.05 K, x1 = 0.246 | 1006.69
291.05 K, x1 = 0.275 | 994.663
291.05 K, x1 = 0.382 | 978.765
291.05 K, x1 = 0.407 | 975.346
291.05 K, x1 = 0.414 | 974.647
291.05 K, x1 = 0.486 | 954.019
291.05 K, x1 = 0.488 | 945.483
291.05 K, x1 = 0.573 | 903.111
291.06 K, x1 = 0.266 | 998.167
291.06 K, x1 = 0.3 | 986.306
291.06 K, x1 = 0.325 | 985.699
291.06 K, x1 = 0.338 | 984.897
291.06 K, x1 = 0.363 | 981.518
291.06 K, x1 = 0.546 | 924.902
291.06 K, x1 = 0.587 | 897.593
291.06 K, x1 = 0.615 | 890.758
291.15 K, x1 = 0.246 | 1006.56
291.15 K, x1 = 0.266 | 998.042
291.15 K, x1 = 0.275 | 994.538
291.15 K, x1 = 0.3 | 985.201
291.15 K, x1 = 0.325 | 983.513
291.15 K, x1 = 0.338 | 982.822
291.15 K, x1 = 0.382 | 977.024
291.15 K, x1 = 0.407 | 973.664
291.15 K, x1 = 0.414 | 973.001
291.15 K, x1 = 0.486 | 951.113
291.15 K, x1 = 0.488 | 947.64
291.15 K, x1 = 0.573 | 901.117
291.15 K, x1 = 0.615 | 890.652
291.15 K, x1 = 0.629 | 887.189
291.16 K, x1 = 0.363 | 980.295
291.16 K, x1 = 0.546 | 921.069
291.16 K, x1 = 0.587 | 897.497
291.25 K, x1 = 0.246 | 1006.44
291.25 K, x1 = 0.266 | 997.918
291.25 K, x1 = 0.275 | 994.413
291.25 K, x1 = 0.3 | 985.014
291.25 K, x1 = 0.325 | 980.203
291.25 K, x1 = 0.338 | 980.22
291.25 K, x1 = 0.382 | 974.837
291.25 K, x1 = 0.407 | 971.578
291.25 K, x1 = 0.414 | 970.955
291.25 K, x1 = 0.486 | 947.303
291.25 K, x1 = 0.488 | 944.104
291.25 K, x1 = 0.573 | 901.031
291.25 K, x1 = 0.587 | 897.388
291.25 K, x1 = 0.615 | 890.547
291.26 K, x1 = 0.363 | 978.023
291.26 K, x1 = 0.546 | 917.045
291.35 K, x1 = 0.246 | 1006.32
291.35 K, x1 = 0.275 | 994.289
291.35 K, x1 = 0.382 | 972.169
291.35 K, x1 = 0.407 | 969.156
291.35 K, x1 = 0.414 | 968.504
291.35 K, x1 = 0.486 | 943.014
291.35 K, x1 = 0.488 | 939.641
291.35 K, x1 = 0.573 | 900.922
291.36 K, x1 = 0.266 | 997.796
291.36 K, x1 = 0.3 | 984.888
291.36 K, x1 = 0.325 | 976.768
291.36 K, x1 = 0.338 | 976.695
291.36 K, x1 = 0.363 | 976.137
291.36 K, x1 = 0.546 | 910.024
291.36 K, x1 = 0.587 | 897.278
291.36 K, x1 = 0.615 | 890.441
291.45 K, x1 = 0.246 | 1006.19
291.45 K, x1 = 0.275 | 994.165
291.45 K, x1 = 0.338 | 972.479
291.45 K, x1 = 0.382 | 968.647
291.45 K, x1 = 0.407 | 965.925
291.45 K, x1 = 0.414 | 965.499
291.45 K, x1 = 0.486 | 938.691
291.45 K, x1 = 0.488 | 935.781
291.45 K, x1 = 0.546 | 907.652
291.45 K, x1 = 0.573 | 900.812
291.45 K, x1 = 0.587 | 897.17
291.45 K, x1 = 0.615 | 890.332
291.46 K, x1 = 0.266 | 997.671
291.46 K, x1 = 0.3 | 984.765
291.46 K, x1 = 0.325 | 975.497
291.46 K, x1 = 0.363 | 971.707
291.55 K, x1 = 0.246 | 1006.07
291.55 K, x1 = 0.275 | 994.042
291.55 K, x1 = 0.382 | 965.717
291.55 K, x1 = 0.407 | 961.145
291.55 K, x1 = 0.414 | 961.374
291.55 K, x1 = 0.486 | 933.844
291.55 K, x1 = 0.488 | 932.33
291.55 K, x1 = 0.573 | 900.7
291.56 K, x1 = 0.266 | 997.549
291.56 K, x1 = 0.3 | 984.639
291.56 K, x1 = 0.325 | 975.358
291.56 K, x1 = 0.338 | 970.561
291.56 K, x1 = 0.363 | 967.75
291.56 K, x1 = 0.546 | 907.531
291.56 K, x1 = 0.587 | 897.059
291.56 K, x1 = 0.615 | 890.227
291.65 K, x1 = 0.246 | 1005.95
291.65 K, x1 = 0.266 | 997.425
291.65 K, x1 = 0.275 | 993.918
291.65 K, x1 = 0.325 | 975.23
291.65 K, x1 = 0.338 | 970.427
291.65 K, x1 = 0.363 | 961.876
291.65 K, x1 = 0.382 | 955.241
291.65 K, x1 = 0.407 | 957.953
291.65 K, x1 = 0.414 | 956.971
291.65 K, x1 = 0.486 | 923.683
291.65 K, x1 = 0.488 | 922.941
291.65 K, x1 = 0.546 | 907.417
291.65 K, x1 = 0.573 | 900.591
291.65 K, x1 = 0.615 | 890.121
291.66 K, x1 = 0.3 | 984.514
291.66 K, x1 = 0.587 | 896.95
291.75 K, x1 = 0.246 | 1005.83
291.75 K, x1 = 0.266 | 997.302
291.75 K, x1 = 0.275 | 993.795
291.75 K, x1 = 0.3 | 984.391
291.75 K, x1 = 0.325 | 975.108
291.75 K, x1 = 0.338 | 970.303
291.75 K, x1 = 0.363 | 961.743
291.75 K, x1 = 0.382 | 955.25
291.75 K, x1 = 0.414 | 944.629
291.75 K, x1 = 0.486 | 923.534
291.75 K, x1 = 0.488 | 922.803
291.75 K, x1 = 0.546 | 907.305
291.75 K, x1 = 0.573 | 900.482
291.75 K, x1 = 0.615 | 890.018
291.76 K, x1 = 0.407 | 947.126
291.76 K, x1 = 0.587 | 896.844
291.85 K, x1 = 0.246 | 1005.7
291.85 K, x1 = 0.275 | 993.671
291.85 K, x1 = 0.3 | 984.268
291.85 K, x1 = 0.338 | 970.173
291.85 K, x1 = 0.382 | 955.119
291.85 K, x1 = 0.414 | 944.718
291.85 K, x1 = 0.486 | 923.411
291.85 K, x1 = 0.573 | 900.371
291.85 K, x1 = 0.615 | 889.909
291.86 K, x1 = 0.266 | 997.179
